Measurements as given in US10675293B2, “Nucleoside agents for the reduction of the deleterious activity of extended nucleotide repeat containing genes” (The Board of Trustees of the Leland Stanford Junior …, priority 2015, dated 2020).

Experiments:
mutant Htt gene = assay: RT-PCR of Htt mRNA in Hdh Q111/Q111 striatal cells; type: cell-based, mouse; settings: compared to mock control
Method: Tet-on HeLa cells (Clontech Laboratories), and stable line 2-PN4 and 21-VS were cultured in DMEM (Gibco) supplemented with 10% Tet-off fetal bovine serum (Gibco) at 37° C. with 5% CO2. Hdh Q7/Q7 (mouse), Hdh Q111/Q111 (mouse) were cultured in DMEM (HyClone) supplemented with 10% fetal bovine serum at 33° C. with 5% C02.
Total RNA was extracted from murine neuronal cells using TRI Reagent (Sigma). For cDNA conversion, 2 μg of total RNA was mixed with 5 μM random primer, 5 μM SnRNA U6 rt-PCR primer and 500 μM dNTPs, incubated at 65° C. for 5 min and then chilled on ice. After addition of First-Strand Buffer, DTT (Cf=10 mM) and 1 μl reverse transcriptase (Invitrogen), the reaction was carried out at 42° C. for 1 hr. Equal volumes of cDNA products were PCR amplified and resolved on 2.5% agarose gels to determine the abundance of Htt transcripts after normalization with U6 or 18S ribosomal RNA.

Q20-GFP = assay: PolyQ-tagged GFP reporter in HEK293 cells, Q20-GFP; type: cell-based; settings: higher concentration, 48 hours after transfection
From the text: (§1) CAG repeats and part of the flanking region in the first exon of Htt gene were PCR amplified from cDNA of HD patient lymphoblastoid cells containing one normal and one mutant allele (Q22 and Q44) with additional flanking restriction enzyme sites NheI. The PCR fragments were than in-frame fused with pEGFP-C1 at the end of the EGFP gene to express polyQ tagged GFP.
(§2) Normal length of poly Q (Q20) and pathogenic length of poly Q(Q44) were in-frame fused at the amino-terminus of eGFPC1 protein to generate Q44- and Q20-GFP (FIG. 8A). The plasmid carrying the polyQ tagged GFP was transfected into HEK 293 cells with greater than 90% transfection efficiency.
(§3) HEK293 cells were transiently transfected with the above mentioned GFP constructs. Five hours after transfection, cells were split among the wells of a 24-well plate and various concentrations of HD101 were added into the wells. 48 hours after transfection, cells were washed with PBS, fixed with 4% paraformaldehyde, and then nuclear stained with DAPI. The cell images were taken by fluorescent microscope (FIG. 9A) and the GFP and DAPI intensity of each field were quantitated using software Image Pro 6.2.

Q44-GFP = assay: PolyQ-tagged GFP reporter in HEK293 cells, Q44-GFP; type: cell-based; settings: 48 hours after transfection
From the text: as §1, §2, §3

With `O=c1cnn([C@@H]2O[C@H](CO)[C@@H](O)[C@H]2O)c(=O)[nH]1` [HD101, 6-Azauridine] the “Htt mRNA transcribed from mutant allele” value (mutant Htt gene) was “down-regulates the expression of mutant Htt gene”, the “Q20-GFP expression (GFP intensity normalized with DAPI)” value (Q20-GFP) was “down regulating both Q20 and Q44-GFP significantly” and the “Q44-GFP expression (GFP intensity normalized with DAPI)” value (Q44-GFP; higher concentration) was “down regulating both Q20 and Q44-GFP significantly”. The “Q44-GFP expression (GFP intensity normalized with DAPI)” value (Q44-GFP; low concentration) was “down regulates”.
